In publication PMC11357990, “A first-in-class selective inhibitor of EGFR and PI3K offers a single-molecule approach to targeting adaptive resistance” (Nature Cancer, 2024):

What was measured:
Test in all cases: biochemical
Settings in all cases: read-out: Binding / ================================================= / % Inhibition of Control Specific Binding
[1] = biological target: T1, 5-HT transporter (h) (antagonist radioligand) (Homo sapiens, UniProt P31645)
T1 construct: gene SLC6A4

[2] = biological target: T2, 5-HT1B (h) (antagonist radioligand) (Homo sapiens, UniProt P28222)
T2 construct: gene HTR1B

[3] = biological target: T3, 5-HT2B (h) (agonist radioligand) (Homo sapiens, UniProt P41595)
T3 construct: gene HTR2B

[4] = biological target: T4, 5-HT2C (h) (antagonist radioligand) (Homo sapiens, UniProt P28335)
T4 construct: gene HTR2C

[5] = biological target: T5, 5-HT3 (h) (antagonist radioligand) (Homo sapiens, UniProt P46098)
T5 construct: gene HTR3A

[6] = biological target: AR(h) (agonist radioligand) (Homo sapiens, UniProt P10275)
Sequence of AR(h) (agonist radioligand) (P10275 whole entry): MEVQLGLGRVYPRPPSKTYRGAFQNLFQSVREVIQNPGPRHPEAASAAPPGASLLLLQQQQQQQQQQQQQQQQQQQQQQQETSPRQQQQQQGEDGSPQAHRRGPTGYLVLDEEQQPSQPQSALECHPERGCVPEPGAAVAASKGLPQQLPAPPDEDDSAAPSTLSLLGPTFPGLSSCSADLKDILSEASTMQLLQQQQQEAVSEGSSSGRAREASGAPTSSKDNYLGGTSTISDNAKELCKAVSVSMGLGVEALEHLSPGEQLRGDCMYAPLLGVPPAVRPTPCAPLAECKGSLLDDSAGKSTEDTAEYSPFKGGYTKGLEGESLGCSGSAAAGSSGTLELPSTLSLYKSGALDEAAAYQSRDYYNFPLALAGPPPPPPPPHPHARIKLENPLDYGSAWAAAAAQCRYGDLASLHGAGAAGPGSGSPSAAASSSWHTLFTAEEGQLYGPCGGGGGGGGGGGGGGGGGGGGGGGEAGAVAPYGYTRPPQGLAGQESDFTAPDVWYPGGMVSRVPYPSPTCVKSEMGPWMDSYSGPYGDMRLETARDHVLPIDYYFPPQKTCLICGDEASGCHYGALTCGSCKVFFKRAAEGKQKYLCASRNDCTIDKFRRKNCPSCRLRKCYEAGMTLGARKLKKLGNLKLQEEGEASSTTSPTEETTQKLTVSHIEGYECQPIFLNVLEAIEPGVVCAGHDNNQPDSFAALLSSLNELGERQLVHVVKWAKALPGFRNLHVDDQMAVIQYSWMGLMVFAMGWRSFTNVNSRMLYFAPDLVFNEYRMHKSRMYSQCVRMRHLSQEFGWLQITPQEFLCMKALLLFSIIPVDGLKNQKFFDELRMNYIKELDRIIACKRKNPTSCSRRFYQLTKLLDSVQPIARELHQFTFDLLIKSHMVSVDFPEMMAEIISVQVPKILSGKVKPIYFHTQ

[7] = biological target: T6, CCK2 (CCKB) (h) (agonist radioligand) (Homo sapiens, UniProt P32239)
T6 construct: gene CCKBR
T6 sequence (P32239 whole entry): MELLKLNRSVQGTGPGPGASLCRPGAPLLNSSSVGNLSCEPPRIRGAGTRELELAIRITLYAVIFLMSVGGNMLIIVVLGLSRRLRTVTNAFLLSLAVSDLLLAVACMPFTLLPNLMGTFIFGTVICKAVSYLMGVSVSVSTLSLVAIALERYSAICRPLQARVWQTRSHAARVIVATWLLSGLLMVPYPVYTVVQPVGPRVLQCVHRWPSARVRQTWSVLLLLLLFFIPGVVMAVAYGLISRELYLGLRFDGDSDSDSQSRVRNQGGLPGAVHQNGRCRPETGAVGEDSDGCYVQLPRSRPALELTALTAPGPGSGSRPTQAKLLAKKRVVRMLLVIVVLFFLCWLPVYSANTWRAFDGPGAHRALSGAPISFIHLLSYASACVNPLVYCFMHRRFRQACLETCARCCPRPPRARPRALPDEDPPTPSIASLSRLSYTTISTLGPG

[8] = biological target: CCR1 (h) (agonist radioligand) (Homo sapiens, UniProt P32246)
Sequence of CCR1 (h) (agonist radioligand) (P32246 whole entry): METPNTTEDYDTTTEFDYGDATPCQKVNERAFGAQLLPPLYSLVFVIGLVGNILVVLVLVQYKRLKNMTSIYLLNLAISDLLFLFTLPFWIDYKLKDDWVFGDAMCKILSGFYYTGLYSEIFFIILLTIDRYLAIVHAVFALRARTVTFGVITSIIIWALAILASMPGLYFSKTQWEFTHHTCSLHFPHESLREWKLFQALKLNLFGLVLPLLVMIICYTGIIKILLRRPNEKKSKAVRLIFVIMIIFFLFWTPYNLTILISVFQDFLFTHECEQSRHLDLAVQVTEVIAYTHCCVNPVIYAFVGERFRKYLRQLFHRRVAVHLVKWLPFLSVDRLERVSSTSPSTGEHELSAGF

[9] = biological target: CXCR2 (IL-8B) (h) (agonist radioligand) (Homo sapiens, UniProt P25025)
[10] = biological target: T7, D1 (h) (antagonist radioligand) (Homo sapiens, UniProt P21728)
T7 construct: gene DRD1

[11] = biological target: T8, D2L (h) (antagonist radioligand) (Homo sapiens, UniProt P14416)
T8 construct: gene DRD2
T8 sequence (P14416 whole entry): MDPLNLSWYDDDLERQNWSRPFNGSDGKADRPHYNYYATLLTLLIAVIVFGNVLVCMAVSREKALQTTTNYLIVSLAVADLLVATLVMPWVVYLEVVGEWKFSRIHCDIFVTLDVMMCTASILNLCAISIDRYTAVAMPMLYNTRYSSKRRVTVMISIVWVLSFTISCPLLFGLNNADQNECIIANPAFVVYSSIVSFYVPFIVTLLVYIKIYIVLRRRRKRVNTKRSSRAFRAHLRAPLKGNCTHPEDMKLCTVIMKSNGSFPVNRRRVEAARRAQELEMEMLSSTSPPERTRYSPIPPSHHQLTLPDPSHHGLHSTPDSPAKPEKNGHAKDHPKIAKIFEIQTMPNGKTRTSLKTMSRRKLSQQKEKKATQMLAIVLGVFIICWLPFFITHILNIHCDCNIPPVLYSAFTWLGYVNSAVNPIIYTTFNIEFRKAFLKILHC

[12] = biological target: T9, D2S (h) (agonist radioligand) (Homo sapiens, UniProt P14416)
T9 construct: gene DRD2
T9 sequence (P14416 whole entry): as above

[13] = biological target: T10, ETA (h) (agonist radioligand) (Homo sapiens, UniProt P25101)
T10 construct: gene EDNRA

[14] = biological target: T11, Estrogen ER alpha (h) (agonist radioligand) (Homo sapiens, UniProt P03372)
T11 construct: gene ESR1

[15] = biological target: T12, GABAB(1b) (h) (antagonist radioligand) (Homo sapiens, UniProt Q9UBS5)
T12 construct: gene GABBR1
T12 sequence (Q9UBS5 whole entry): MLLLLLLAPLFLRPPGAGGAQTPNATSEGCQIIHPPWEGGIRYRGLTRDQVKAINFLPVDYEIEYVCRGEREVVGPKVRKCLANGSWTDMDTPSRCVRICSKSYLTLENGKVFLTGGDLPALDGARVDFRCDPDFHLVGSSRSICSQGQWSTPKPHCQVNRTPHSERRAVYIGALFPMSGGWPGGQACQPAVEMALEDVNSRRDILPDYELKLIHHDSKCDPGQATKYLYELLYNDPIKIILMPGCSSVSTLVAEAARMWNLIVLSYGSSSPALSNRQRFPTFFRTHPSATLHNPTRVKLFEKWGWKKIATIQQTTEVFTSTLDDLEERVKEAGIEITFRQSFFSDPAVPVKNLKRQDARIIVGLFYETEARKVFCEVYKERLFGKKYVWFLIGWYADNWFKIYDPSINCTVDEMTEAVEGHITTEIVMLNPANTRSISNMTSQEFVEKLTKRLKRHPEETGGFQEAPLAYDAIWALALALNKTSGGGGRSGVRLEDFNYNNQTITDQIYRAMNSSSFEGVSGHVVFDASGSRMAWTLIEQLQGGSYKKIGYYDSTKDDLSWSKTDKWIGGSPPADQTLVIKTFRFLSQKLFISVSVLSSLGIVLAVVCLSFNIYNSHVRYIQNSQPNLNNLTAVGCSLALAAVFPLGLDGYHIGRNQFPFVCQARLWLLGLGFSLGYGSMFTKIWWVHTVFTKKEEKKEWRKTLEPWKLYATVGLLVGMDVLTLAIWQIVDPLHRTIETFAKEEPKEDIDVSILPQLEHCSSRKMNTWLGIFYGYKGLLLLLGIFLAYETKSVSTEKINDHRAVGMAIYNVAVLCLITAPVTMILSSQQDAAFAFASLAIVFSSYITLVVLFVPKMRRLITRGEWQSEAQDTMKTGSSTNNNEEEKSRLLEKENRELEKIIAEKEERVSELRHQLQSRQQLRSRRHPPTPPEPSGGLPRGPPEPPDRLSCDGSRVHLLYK

[16] = biological target: T13, GR (h) (agonist radioligand) (Homo sapiens, UniProt P04150)
T13 construct: gene NR3C1

[17] = biological target: T14, H2 (h) (antagonist radioligand) (Homo sapiens, UniProt P25021)
T14 construct: gene HRH2

[18] = biological target: T15, M1 (h) (antagonist radioligand) (Homo sapiens, UniProt P11229)
T15 construct: gene CHRM1

[19] = biological target: T16, M4 (h) (antagonist radioligand) (Homo sapiens, UniProt P08173)
T16 construct: gene CHRM4

[20] = biological target: T17, MC1 (agonist radioligand) (Mus musculus, UniProt Q01727)
T17 construct: gene Mc1r
T17 sequence (Q01727 whole entry): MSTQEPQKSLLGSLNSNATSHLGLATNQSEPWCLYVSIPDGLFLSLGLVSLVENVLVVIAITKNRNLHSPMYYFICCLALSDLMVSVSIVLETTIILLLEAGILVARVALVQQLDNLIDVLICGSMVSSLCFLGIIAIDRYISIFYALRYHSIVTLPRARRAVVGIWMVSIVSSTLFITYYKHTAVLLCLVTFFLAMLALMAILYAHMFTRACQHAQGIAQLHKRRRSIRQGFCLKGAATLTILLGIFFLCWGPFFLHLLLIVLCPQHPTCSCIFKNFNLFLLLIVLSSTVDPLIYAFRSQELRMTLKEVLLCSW

[21] = biological target: T18, MC4 (h) (agonist radioligand) (Homo sapiens, UniProt P32245)
T18 construct: gene MC4R

[22] = biological target: T19, N neuronal alpha 4beta 2 (h) (agonist radioligand) (Homo sapiens, UniProt P17787+P43681)
T19 construct: gene CHRNB2

[23] = biological target: T20, PAF (h) (agonist radioligand) (Homo sapiens, UniProt P25105)
T20 construct: gene PTAFR

[24] = biological target: T21, PR (h) (agonist radioligand) (Homo sapiens, UniProt P06401)
T21 construct: gene PGR
T21 sequence (P06401 whole entry): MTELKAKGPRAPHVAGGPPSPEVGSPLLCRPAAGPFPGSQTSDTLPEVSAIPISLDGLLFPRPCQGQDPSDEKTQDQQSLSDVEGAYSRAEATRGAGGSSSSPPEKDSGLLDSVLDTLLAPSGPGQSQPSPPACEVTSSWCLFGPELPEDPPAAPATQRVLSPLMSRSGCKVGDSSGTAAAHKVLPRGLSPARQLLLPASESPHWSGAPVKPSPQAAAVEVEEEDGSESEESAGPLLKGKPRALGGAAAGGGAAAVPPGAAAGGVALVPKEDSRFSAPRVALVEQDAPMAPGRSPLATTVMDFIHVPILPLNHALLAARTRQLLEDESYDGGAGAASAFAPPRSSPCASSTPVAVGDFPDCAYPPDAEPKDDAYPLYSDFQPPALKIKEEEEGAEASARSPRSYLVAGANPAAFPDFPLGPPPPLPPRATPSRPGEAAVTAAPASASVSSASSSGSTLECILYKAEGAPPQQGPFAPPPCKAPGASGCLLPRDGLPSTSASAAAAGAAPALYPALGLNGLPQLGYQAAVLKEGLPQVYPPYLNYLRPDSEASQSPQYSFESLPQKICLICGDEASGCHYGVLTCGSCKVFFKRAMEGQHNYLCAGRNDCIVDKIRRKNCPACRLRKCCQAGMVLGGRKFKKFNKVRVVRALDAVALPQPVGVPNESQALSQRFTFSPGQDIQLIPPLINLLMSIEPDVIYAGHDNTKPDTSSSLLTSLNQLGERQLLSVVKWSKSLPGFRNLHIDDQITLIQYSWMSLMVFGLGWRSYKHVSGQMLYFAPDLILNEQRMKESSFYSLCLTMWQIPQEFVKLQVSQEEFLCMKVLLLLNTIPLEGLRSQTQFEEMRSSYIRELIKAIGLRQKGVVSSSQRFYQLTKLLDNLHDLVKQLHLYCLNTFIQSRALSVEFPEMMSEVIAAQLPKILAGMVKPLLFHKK

[25] = biological target: T22, V1a (h) (agonist radioligand) (Homo sapiens, UniProt P37288)
T22 construct: gene AVPR1A

[26] = biological target: T23, alpha 1D (h) (antagonist radioligand) (Homo sapiens, UniProt P25100)
T23 construct: gene ADRA1D
T23 sequence (P25100 whole entry): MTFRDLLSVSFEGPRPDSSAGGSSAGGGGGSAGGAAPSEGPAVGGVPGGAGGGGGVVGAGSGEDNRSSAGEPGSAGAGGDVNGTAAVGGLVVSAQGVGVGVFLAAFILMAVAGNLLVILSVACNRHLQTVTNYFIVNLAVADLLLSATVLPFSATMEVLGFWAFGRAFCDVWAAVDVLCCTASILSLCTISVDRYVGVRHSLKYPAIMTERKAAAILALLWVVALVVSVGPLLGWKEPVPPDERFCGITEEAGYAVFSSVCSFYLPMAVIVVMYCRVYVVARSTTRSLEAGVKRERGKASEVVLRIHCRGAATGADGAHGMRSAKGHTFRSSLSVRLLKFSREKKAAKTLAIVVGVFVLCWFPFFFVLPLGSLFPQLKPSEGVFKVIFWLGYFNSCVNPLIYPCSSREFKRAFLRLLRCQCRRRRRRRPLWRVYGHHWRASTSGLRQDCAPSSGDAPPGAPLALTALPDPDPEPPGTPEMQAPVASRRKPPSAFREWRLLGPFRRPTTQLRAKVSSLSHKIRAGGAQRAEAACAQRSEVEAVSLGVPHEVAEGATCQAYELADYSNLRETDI

[27] = biological target: T24, alpha 2B (h) (antagonist radioligand) (Homo sapiens, UniProt P18089)
T24 construct: gene ADRA2B

[28] = biological target: T25, beta 2 (h) (antagonist radioligand) (Homo sapiens, UniProt P07550)
T25 construct: gene ADRB2

[29] = biological target: T26, kappa (h) (KOP) (agonist radioligand) (Homo sapiens, UniProt P41145)
T26 construct: gene OPRK1

[30] = biological target: T27, mu (MOP) (h) (agonist radioligand) (Homo sapiens, UniProt P35372)
T27 construct: gene OPRM1

[31] = biological target: T28, norepinephrine transporter (h) (antagonist radioligand) (Homo sapiens, UniProt P23975)
T28 construct: gene SLC6A2

**Q.** Which results are given for C[C@@H](Nc1ncnc2ccc(-c3cnc(Cl)c(NS(C)(=O)=O)c3)cc12)c1ccccc1 [MTX-531, (R)-N-(2-chloro-5-(4-((1-phenylethyl)amino)quinazolin-6-yl)pyridin-3-yl)methane-sulfonamide]?
**A.** inhibition at 10 µM [1]: -1%; inhibition at 10 µM [2]: -21%; inhibition at 10 µM [3]: 2%; inhibition at 10 µM [4]: 4%; inhibition at 10 µM [5]: 10%; inhibition at 10 µM [6]: -1%; inhibition at 10 µM [7]: -8%; inhibition at 10 µM [8]: 0%; inhibition at 10 µM [9]: 4%; inhibition at 10 µM [10]: 2%; inhibition at 10 µM [11]: -17%; inhibition at 10 µM [12]: -4%; inhibition at 10 µM [13]: 1%; inhibition at 10 µM [14]: 6%; inhibition at 10 µM [15]: -3%; inhibition at 10 µM [16]: 3%; inhibition at 10 µM [17]: -1%; inhibition at 10 µM [18]: 22%; inhibition at 10 µM [19]: 5%; inhibition at 10 µM [20]: 2%; inhibition at 10 µM [21]: 1%; inhibition at 10 µM [22]: -8%; inhibition at 10 µM [23]: 1%; inhibition at 10 µM [24]: -14%; inhibition at 10 µM [25]: 2%; inhibition at 10 µM [26]: 17%; inhibition at 10 µM [27]: 2%; inhibition at 10 µM [28]: -6%; inhibition at 10 µM [29]: 7%; inhibition at 10 µM [30]: 25%; inhibition at 10 µM [31]: 19%
